Measurements from patent publication US20120122923A1, “DUAL MOLECULES CONTAINING A PEROXIDE DERIVATIVE, THEIR SYNTHESIS AND THERAPEUTIC USES” (SANOFI-AVENTIS, priority 2006, published 2012).
Read-outs that look alike come from different tables or passages of the source.

Key:
[1] = Metabolic stability on human hepatic microsomes; type: in vitro ADME; settings: for Percentage metabolization: human hepatic microsomes 1 mg/ml, 5 μM substrate, 1 mM NADPH, 20 minutes at 37° C., degradation with respect to T0
Description: These experiments were carried out on human hepatic microsomes in the presence of NADPH cofactor, necessary for the activity of the principal enzymes, namely cytochromes P-450 (CYP) and flavine mono-oxygenases (FMO). […] After 20 minutes, the reaction was stopped by adding 1 volume of acetonitrile. The supernatant was then removed after centrifuging (speed 3000 g for 10 minutes at 4° C.). The supernatant was analysed by high performance liquid chromatography coupled to a mass spectrometer (LC-MS/MS) and the degradation of each of the test compounds was calculated as a percentage (%) with respect to T0. The microsomal fractions were prepared from human hepatic tissue deriving from at least 12 different donors and frozen at −80° C. The tissue was defrosted then dried, weighed and cut into thin sheets before homogenizing. The tissue was homogenized using a Potter-Elvejheim type homogenizer at +4° C. The tissue homogenates were then centrifuged at 10000 g for 30 minutes at +4° C. […] The residue was finally taken up into suspension in a final volume of KH2PO4/K2HPO4 buffer containing 20% (v/v) of glycerol (1 ml for 2 grams of tissue). The hepatic microsomal fractions obtained were divided into aliquots (500 μl), frozen rapidly in liquid nitrogen and kept frozen at −80° C. until use. concentration of microsomal proteins: 1 mg/ml; concentration of BSA (bovine serum albumin (BSA): 1 mg/ml; concentration of substrate (test compound): 5 μM; CYP and FMO co-factors: 1 mM NADPH; Phosphate buffer (pH 7.4): 10 mM. • The reaction was initiated by adding 1 mM of NADPH and incubating for 20 minutes at 37° C., with stirring. The reaction was stopped by adding 1 volume of cold acetonitrile. • Total incubation volume=300 μl

[2] = system: P. falciparum FcM29-Cameroon strain; experiment: Chemosensitivity test (radioactive micromethod, tritiated hypoxanthine incorporation), FcM29-Cameroon strain; type: cell-based; settings: Plasmodium falciparum, 48 h, read-out: IC50 (concentration required to inhibit parasite growth by 50%)
Description: (§1) Strains of P. falciparum were cultivated continuously using Trager and Jensen's method (Science, 1976, 193, 673-675): the parasites were maintained in human red blood corpuscles (O±), diluted to a blood parasite level of 2% in RPMI 1640 medium supplemented with 25 mM Hepes+24 mM NaHCO3+2 mM L-glutamine and complemented with 5% human serum from all groups.
(§2) The parasites were incubated at 37° C., in a moist atmosphere and 5% CO2.
The antimalarial activity tests were carried out using the radioactive micromethod of Desjardins et al. (Antimicrob. Agents Chemother., 1979, 16, 710-718). Each molecule was tested in triplicate. The tests were carried out in 96 well microplates. The P. falciparum strains were cultured in RPMI 1640 solutions complemented with 5% human serum with haematocrit at 2% and a blood parasite level of 1.5%. For each test, the parasites were incubated with decreasing concentrations of test compounds for 48 h at 37° C., in a moist atmosphere and 5% CO2. The artemisinin and chloroquine diphosphate were used as reference molecules. The first dilution of the test compounds was carried out at 1 mg/ml in dimethylsulphoxide. The dilution series for the successive daughter solutions was also prepared in dimethylsulphoxide. Each daughter dilution was then diluted to 1/50th in RPMI 1640 complemented with 5% human serum, all of the dilutions being made at 37° C. Said dilutions were then added to the parasites in culture in the microplates. After adding the test compound, the parasites were cultured in RPMI 1640 with 5% human serum and 1% dimethylsulphoxide. Parasite growth was measured by the incorporation of tritiated hypoxanthine (added 24 h after beginning exposure to the test compound) and compared with the incorporation in the absence of the test compound (taken as 100%). The values for IC50 (concentrations required to inhibit parasite growth by 50%) were determined by plotting the percentage inhibition as a function of the logarithm of the dose using GraphPad Prism 4® processing software (GraphPad software, Inc., 5755 Oberlin Drive, #110, San Diego, Calif. 92121, USA).

[3] = system: P. falciparum FcB1-Columbia strain; experiment: Chemosensitivity test (radioactive micromethod, tritiated hypoxanthine incorporation), FcB1-Columbia strain; type: cell-based; settings: Plasmodium falciparum, read-out: IC50 (concentration required to inhibit parasite growth by 50%)
Description: as §1, §2
The antimalarial activity tests were carried out using the radioactive micromethod of Desjardins et al. (Antimicrob. Agents Chemother., 1979, 16, 710-718). Each molecule was tested in triplicate. The tests were carried out in 96 well microplates. The P. falciparum strains were cultured in RPMI 1640 solutions complemented with 5% human serum with haematocrit at 2% and a blood parasite level of 1.5%. For each test, the parasites were incubated with decreasing concentrations of test compounds for 48 h at 37° C., in a moist atmosphere and 5% CO2. The artemisinin and chloroquine diphosphate were used as reference molecules. The first dilution of the test compounds was carried out at 1 mg/ml in dimethylsulphoxide. […] Parasite growth was measured by the incorporation of tritiated hypoxanthine (added 24 h after beginning exposure to the test compound) and compared with the incorporation in the absence of the test compound (taken as 100%). […]

[4] = human hepatic microsomes, from Table 2
[5] = FcM29-Cameroon strain (very strongly chloroquine-resistant), in human red blood corpuscles

SMILES	Percentage metabolization [1]	melting point	further results
CC(C)C1=C[C@H]2OC3(CCC(NCCNc4ccnc5cc(Cl)ccc45)CC3)OO[C@H]2CC1 (some centres unmarked) [DU1302, reference compound]	95-100%		
CC1(C)COC2(CCC(NC3CCC(Nc4ccnc5cc(Cl)ccc45)CC3)CC2)OO1 (stereo not drawn) [PA1103, N-(7-chloro-quinolin-4-yl)-N′-(3,3-dimethyl-1,2,5-trioxa-spiro[5.5]undec-9-yl)-cyclohexane-trans-1,4-diamine]	11%	176 °C (dec.)	times less degraded than chloroquine [1, 4]: about 3 times; times less degraded than the prior art compounds [1, 4]: about 10 times; stability in human hepatic microsomes compared with the other test compounds ([1]; in words): much more stable; IC50 [2, 5]: 6 nM
Clc1ccc2c(NCCN3CCC4(CC3)OCC3(CCCCC3)OO4)ccnc2c1 [PA1110, reference compound]	98%		
CC1(C)COC2(CCC(N[C@@H]3CCCC[C@H]3Nc3ccnc4cc(Cl)ccc34)CC2)OO1 (stereo partly drawn) [PA1188, N-(7-chloro-quinolin-4-yl)-N′-(3,3-dimethyl-1,2,5-trioxa-spiro[5.5]undec-9-yl)-cyclohexane-trans-1,2-diamine]			IC50 [2, 5]: 4 nM
CC1(C)COC2(CCC(NC3CCC(Nc4cc(C(F)(F)F)nc5c(C(F)(F)F)cccc45)CC3)CC2)OO1 (stereo not drawn) [PA1251, N-(2,8-bis-trifluoromethyl-quinolin-4-yl)-N′-(3,3-dimethyl-1,2,5-trioxa-spiro[5.5]undec-9-yl)-cyclohexane-trans-1,4-diamine]		168 °C (dec.)	
CC1(C)COC2(CCC(NC3CCC(Nc4ccnc5cc(C(F)(F)F)ccc45)CC3)CC2)OO1 (stereo not drawn) [PA1252, N-(3,3-dimethyl-1,2,5-trioxa-spiro[5.5]undec-9-yl)-N′-(7-trifluoromethyl-quinolin-4-yl)-cyclohexane-trans-1,4-diamine]		166.5 °C (dec.)	
CN(C)c1ccc2nccc(NC3CCC(NC4CCC5(CC4)OCC(C)(C)OO5)CC3)c2c1 (stereo not drawn) [PA1253, N-(3,3-dimethyl-1,2,5-trioxa-spiro[5.5]undec-9-yl)-N′-(6-dimethylamino-quinolin-4-yl)-cyclohexane-trans-1,4-diamine]		193 °C (dec.)	
CC1OOC2(CCC(NC3CCC(Nc4ccnc5cc(Cl)ccc45)CC3)CC2)OC1C (stereo not drawn) [PA1255, N-(7-chloro-quinolin-4-yl)-N′-(3,4-dimethyl-1,2,5-trioxa-spiro[5.5]undec-9-yl)-cyclohexane-trans-1,4-diamine]		166 °C (dec.)	
CC1(C)COC2(CCC(NC3CCC(Nc4ccnc5ccc(OC(F)(F)F)cc45)CC3)CC2)OO1 (stereo not drawn) [PA1305, N-(6-trifluoromethoxy-quinolin-4-yl)-N′-(3,3-dimethyl-1,2,5-trioxa-spiro[5.5]undec-9-yl)-cyclohexane-trans-1,4-diamine]		165 °C (dec.)	
C[C@@H]1CC[C@H]2[C@@H](C)C(=O)O[C@@H]3O[C@@]4(C)CC[C@@H]1[C@]32OO4 [artemisinin, reference compound]			IC50 ([3]; FcB1-Columbia strain (moderately chloroquine-resistant), in human red blood corpuscles, 48 h): 11 nM; IC50 [2, 5]: 5 nM
C[C@H]1[C@H](OC(=O)CCC(=O)O)O[C@@H]2O[C@@]3(C)CC[C@H]4[C@H](C)CC[C@@H]1[C@@]24OO3 [artesunate, reference compound]	100%		
CCN(CC)CCCC(C)Nc1ccnc2cc(Cl)ccc12 (centres unmarked) [chloroquine, reference compound]	29%		IC50 ([3]; FCB1, 48 h): 66 nM; IC50 [2]: 258 nM
